Measurements as given in patent publication US7045343B2, “Sterilization indicator test packs” (3M Innovative Properties Company, priority 1998, dated 2006).

Key:
[1] = system: enzyme associated with Bacillus stearothermophilus spores; experiment: Rapid enzyme fluorescence readout of dual rapid readout indicators after prevacuum steam sterilization; assay type: biochemical; conditions: Example 5, 4-pulse prevacuum steam 121° C., 7–13 min
Experimental: (§1) The indicators prepared for the Examples were dual rapid readout indicators that provided both a rapid, enzyme-based efficacy test and a confirmatory spore outgrowth test. Spores coated on the carrier strip 16 served as the source of active enzyme whose activity was measured by the rapid enzyme test. These same spores were then incubated in the spore outgrowth portion of the test.
(§2) Bacillus stearothermophilus, commercially available as ATCC 7953 from American Type Culture Collection, Rockville, Md., was grown overnight (16 hours) at 58° C. in tryptic soy broth. This culture was used to inoculate the surface of agar plates consisting of 8 g/l nutrient broth, 4 g/l yeast extract, 0.1 g/l manganese chloride and 20 g/l agar at pH 7.2. Plates were incubated at 58° C. for 72 hours. Spores were scraped from the plates and suspended in sterile distilled water. The spores were separated from the vegetative debris by centrifuging the suspension at 7000 rpm and 4° C. for 20 minutes. The supernatant was poured off and the spores were resuspended in sterile distilled water. The cleaning procedure was repeated several times. After the final wash, the spores were suspended in sterile distilled water, at a concentration of approximately 1×10^8 spores per milliliter.
(§3) The spores were then treated with the chemicals identified in Tables 1–5. All chemicals tested were obtained from commercial sources. The spores were centrifuged at 6000 rpm for 10 minutes. The supernatant and coating chemical mixtures were heated at 60–80° C. for several minutes and vortexed to get the material into solution. The spores were then mixed into the sterilant-resistant chemical solution. The sterilant-resistant chemical solution was applied to 5×25 mm, 591 A paper strips (Schleicher & Schuell, Inc., Keene, N.H.) by pipetting 10–15 microliters to each strip for a final population of about 1×10^6 spores per strip. The strips were dried 16 hours at 37° C.
(§4) The treated spore strips were placed on the bottom of the outer container 12 of the indicator 10 and a barrier was inserted between the spore strip 16 and the inner container 18, which contained enzyme substrate. A […] ( 11/16 inch) disc of polypropylene blown microfiber material, with a weight of 200 g/m^2, commercially available as “THINSULATE™ 200-B brand Thermal Insulation” from 3M Company, St. Paul, Minn., was used as the barrier. The inner container 18 contained 0.67 ml nutrient medium, consisting of 17 g of a bacteriological peptone and a 0.17 g/l of L-alanine, as well as 0.1 g 4-methylumbelliferyl-alpha-D-glucoside, commercially available from Sigma Chemical Company, St. Louis, Mo., dissolved in 200 microliters of N,N-dimethylformamide, and 0.03 g bromocresol purple pH indicator dye, per liter of water. The pH of the enzyme substrate and nutrient medium solution was adjusted to 7.6 with 0.1N sodium hydroxide.
(§5) Sterilization indicators were made as described above with each of the chemicals and concentrations described in Table 1. Control indicators were made using untreated spores. The indicators were placed in metal instrument trays and exposed at 121° C. in a Getinge Steam Sterilizer (Getinge International, Inc., 1100 Towbin Ave., Lakewood, N.J.) using a 4-pulse prevacuum cycle at 121° C. with a vacuum level of 0.075–0.085 bar and a steam pulse to 1.00 bar for each pulse. Indicators were exposed in the sterilizer for between 7 and 13 minutes. This cycle is depicted in the time-pressure diagram in FIG. 5. After exposure the inner containers containing the enzyme substrate and nutrient medium were crushed and the indicators were incubated at 60° C. The indicators were examined for fluorescence using a 3M™ ATTEST™ Model 190 Rapid Autoreader, commercially available from 3M Company, St. Paul, Minn. Additionally, spore growth, as indicated by a color change from purple to yellow, was determined visually after 168 hours of incubation at 60° C. […]

[2] = system: Bacillus stearothermophilus spores; experiment: Spore outgrowth (color change) of indicators after prevacuum steam sterilization; assay type: cell-based; conditions: Example 5, 4-pulse prevacuum steam 121° C., 7–13 min
Experimental: as §1, §2, §3, §4, §5

Substance	FLUORESCENCE - PERCENT POSITIVE 1 HR ([1]; 50 mg/ml coating) [%]	FLUORESCENCE - PERCENT POSITIVE 2 HR ([1]; 50 mg/ml coating) [%]	FLUORESCENCE - PERCENT POSITIVE 3 HR ([1]; 50 mg/ml coating) [%]	FLUORESCENCE - PERCENT POSITIVE 4 HR ([1]; 50 mg/ml coating) [%]	FLUORESCENCE - PERCENT POSITIVE 1 HR ([1]; 100 mg/ml coating) [%]	FLUORESCENCE - PERCENT POSITIVE 2 HR ([1]; 100 mg/ml coating) [%]	FLUORESCENCE - PERCENT POSITIVE 3 HR ([1]; 100 mg/ml coating) [%]	FLUORESCENCE - PERCENT POSITIVE 4 HR ([1]; 100 mg/ml coating) [%]	NO. GROWTH POSITIVE 168 HR ([2]; 50 mg/ml coating)	NO. GROWTH POSITIVE 168 HR ([2]; 100 mg/ml coating)
POE(15) Glyceryl Monostearate	0	0	42.9	57.1	0	0	0	0	7	4
POE(5) Glyceryl Monooleate	0	0	0	0	0	0	0	0	2	2
